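Test compounds were applied to cells in 96-well plates for 48 hours at 5 doses. GI50 = concentration required for 50% inhibition of growth.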 The source made the active and inactive calls. No stated cut-off is given here; in the data, active = GI50 up to about 1.1 µM and inactive = higher.
Tests used:
Experiment in all cases: NCI anticancer screen, dose series, 48 h
[1] = test system: MOLT-4
[2] = test system: MDA-MB-435
[3] = test system: CCRF-CEM
[4] = test system: LOX IMVI
[5] = test system: SF-295
[6] = test system: MDA-MB-231
[7] = test system: NCI-H226
[8] = test system: Malme-3M
[9] = test system: HT-29
[10] = test system: EKVX
[11] = test system: UACC-62
[12] = test system: OVCAR-4
[13] = test system: A549
[14] = test system: SR
[15] = test system: UO-31
[16] = test system: SNB-75
[17] = test system: T47D
[18] = test system: HOP-62
[19] = test system: Hs-578T
[20] = test system: PC-3
[21] = test system: SF-268
[22] = test system: SF-539
[23] = test system: RXF 393
[24] = test system: RPMI-8226
[25] = test system: SN12C
[26] = test system: HOP-92
[27] = test system: HCT-15
[28] = test system: SNB-19
[29] = test system: NCI-H23
[30] = test system: KM12
[31] = test system: OVCAR-8
[32] = test system: 786-0
[33] = test system: SW-620
[34] = test system: U-251
[35] = test system: OVCAR-3
[36] = test system: NCI/ADR-RES
[37] = test system: IGROV-1
[38] = test system: NCI-H460
[39] = test system: MDA-N
[40] = test system: OVCAR-5
[41] = test system: ACHN
[42] = test system: BT-549
[43] = test system: SK-MEL-2
[44] = test system: K562
[45] = test system: SK-MEL-28
[46] = test system: SK-OV-3
[47] = test system: TK-10
[48] = test system: A498
[49] = test system: SK-MEL-5
[50] = test system: MCF7
[51] = test system: HCC 2998
[52] = test system: HL-60
[53] = test system: DU-145
[54] = test system: M14
[55] = test system: NCI-H522
[56] = test system: CAKI-1
[57] = test system: UACC-257
[58] = test system: HCT-116
[59] = test system: COLO 205
[60] = test system: DMS-273
[61] = test system: DLD-1

CN(C)CCNc1ccc2c(=O)n(CCN(C)C)c(=O)n3c4ccc(O)cc4c(=O)c1c23
GI50 [1]: < 10 nM (active)
GI50 [2]: 71.1 nM (active)
GI50 [3]: < 10 nM (active)
GI50 [4]: < 10.5 nM (active)
GI50 [5]: < 10 nM (active)
GI50 [6]: < 39.5 nM (active)
GI50 [7]: < 10 nM (active)
GI50 [8]: 56.9 nM (active)
GI50 [9]: < 10 nM (active)
GI50 [10]: 183 nM (active)
GI50 [11]: < 12.8 nM (active)
GI50 [12]: 106 nM (active)
GI50 [13]: < 10 nM (active)
GI50 [14]: < 10 nM (active)
GI50 [15]: < 14.8 nM (active)
GI50 [16]: 29 nM (active)
GI50 [17]: < 16.5 nM (active)
GI50 [18]: < 10 nM (active)
GI50 [19]: 161 nM (active)
GI50 [20]: < 49.1 nM (active)
GI50 [21]: < 13.4 nM (active)
GI50 [22]: < 10 nM (active)
GI50 [23]: < 12.7 nM (active)
GI50 [24]: < 10.4 nM (active)
GI50 [25]: 10.3 nM (active)
GI50 [26]: < 10 nM (active)
GI50 [27]: 45 nM
GI50 [28]: < 21.2 nM (active)
GI50 [29]: < 10 nM (active)
GI50 [30]: 122 nM (active)
GI50 [31]: < 10 nM (active)
GI50 [32]: < 10 nM (active)
GI50 [33]: < 10 nM (active)
GI50 [34]: < 10.9 nM (active)
GI50 [35]: 105 nM (active)
GI50 [36]: 546 nM (active)
GI50 [37]: 14.4 nM (active)
GI50 [38]: < 10 nM (active)
GI50 [39]: 35.6 nM (active)
GI50 [40]: 77.5 nM (active)
GI50 [41]: < 10 nM (active)
GI50 [42]: 292 nM (active)
GI50 [43]: 226 nM (active)
GI50 [44]: < 10 nM (active)
GI50 [45]: 202 nM (active)
GI50 [46]: < 22 nM (active)
GI50 [47]: 197 nM (active)
GI50 [48]: 61.1 nM (active)
GI50 [49]: < 11.5 nM (active)
GI50 [50]: < 10 nM (active)
GI50 [51]: < 10 nM (active)
GI50 [52]: < 10 nM (active)
GI50 [53]: < 10 nM (active)
GI50 [54]: < 34 nM (active)
GI50 [55]: < 10 nM (active)
GI50 [56]: < 10 nM (active)
GI50 [57]: 149 nM (active)
GI50 [58]: < 10 nM (active)
GI50 [59]: 32.7 nM (active)

CCN(CC)CC[n+]1ccc2c(C)c3[nH]c4ccccc4c3c(C)c2c1
GI50 [1]: 182 nM (active)
GI50 [3]: 219 nM (active)
GI50 [4]: 399 nM (active)
GI50 [5]: 701 nM (active)
GI50 [8]: 583 nM (active)
GI50 [9]: 518 nM (active)
GI50 [10]: 982 nM (active)
GI50 [16]: 251 nM (active)
GI50 [18]: 953 nM (active)
GI50 [21]: 222 nM (active)
GI50 [22]: 413 nM (active)
GI50 [23]: 2090 nM (inactive)
GI50 [24]: 644 nM (active)
GI50 [25]: 222 nM (active)
GI50 [27]: 16300 nM
GI50 [28]: 170 nM (active)
GI50 [29]: 292 nM (active)
GI50 [30]: 385 nM (active)
GI50 [33]: 445 nM (active)
GI50 [34]: 173 nM (active)
GI50 [35]: 213 nM (active)
GI50 [60]: 315 nM (active)
GI50 [38]: 451 nM (active)
GI50 [40]: 1140 nM (inactive)
GI50 [43]: 465 nM (active)
GI50 [44]: 182 nM (active)
GI50 [45]: 352 nM (active)
GI50 [48]: 5190 nM (inactive)
GI50 [49]: 337 nM (active)
GI50 [50]: 678 nM (active)
GI50 [51]: 319 nM (active)
GI50 [52]: 310 nM (active)
GI50 [55]: 211 nM (active)
GI50 [61]: 1670 nM (inactive)
GI50 [56]: 1110 nM (active)
GI50 [57]: 565 nM (active)

CNCCCNC1(c2cc3ccccc3s2)CCCCC1
GI50 [1]: 1940 nM (inactive)
GI50 [2]: 2550 nM (inactive)
GI50 [3]: 1660 nM (inactive)
GI50 [4]: 2790 nM (inactive)
GI50 [5]: 14200 nM (inactive)
GI50 [6]: 2990 nM (inactive)
GI50 [7]: 19500 nM (inactive)
GI50 [8]: 2280 nM (inactive)
GI50 [9]: 2460 nM (inactive)
GI50 [10]: 13300 nM (inactive)
GI50 [11]: 1940 nM (inactive)
GI50 [12]: 13500 nM (inactive)
GI50 [13]: 7000 nM (inactive)
GI50 [14]: 1520 nM (inactive)
GI50 [15]: 2320 nM (inactive)
GI50 [16]: 6170 nM (inactive)
GI50 [17]: 4920 nM (inactive)
GI50 [18]: 8930 nM (inactive)
GI50 [19]: 13200 nM (inactive)
GI50 [20]: 9440 nM (inactive)
GI50 [21]: 11300 nM (inactive)
GI50 [22]: 2360 nM (inactive)
GI50 [23]: 1360 nM (inactive)
GI50 [24]: 2040 nM (inactive)
GI50 [25]: 5520 nM (inactive)
GI50 [26]: 2390 nM (inactive)
GI50 [27]: 8430 nM
GI50 [28]: 12100 nM (inactive)
GI50 [29]: 16400 nM (inactive)
GI50 [30]: 5610 nM (inactive)
GI50 [31]: 14500 nM (inactive)
GI50 [32]: 3470 nM (inactive)
GI50 [33]: 12300 nM (inactive)
GI50 [34]: 4650 nM (inactive)
GI50 [35]: 12500 nM (inactive)
GI50 [36]: 14900 nM (inactive)
GI50 [37]: 12800 nM (inactive)
GI50 [38]: 2860 nM (inactive)
GI50 [39]: 2200 nM (inactive)
GI50 [40]: 14300 nM (inactive)
GI50 [41]: 14000 nM (inactive)
GI50 [42]: 14600 nM (inactive)
GI50 [43]: 4590 nM (inactive)
GI50 [44]: 1980 nM (inactive)
GI50 [45]: 1640 nM (inactive)
GI50 [46]: 15700 nM (inactive)
GI50 [47]: 6310 nM (inactive)
GI50 [48]: 3370 nM (inactive)
GI50 [49]: 2210 nM (inactive)
GI50 [50]: 4120 nM (inactive)
GI50 [51]: 1290 nM (inactive)
GI50 [52]: 1430 nM (inactive)
GI50 [53]: 11900 nM (inactive)
GI50 [54]: 3800 nM (inactive)
GI50 [55]: 5640 nM (inactive)
GI50 [56]: 10100 nM (inactive)
GI50 [57]: 1760 nM (inactive)
GI50 [58]: 3560 nM (inactive)
GI50 [59]: 1790 nM (inactive)

From ChEMBL document CHEMBL1201862, “PubChem BioAssay data set” (2004)
